Reference: US20080221074A1, “Drug Screen and Treatment Method” (priority 2006, published 2008)

Columns and labels:
[1] = tested on: progressive ischemia after thermal injury of the ear; experiment: thermal injury model using mouse ear tissue; type: in vivo, Balb/c mice; conditions: injection in propylene glycol after burn
Procedure: A thermal injury model using mouse ear tissue was used to characterize compounds for their capacity to treat inflammation associated with thermal trauma. […] Groups of Balb/c mice, approximately nine weeks old were given an identifying mark and then divided into control and treated subgroups. The thickness of the ear to be immersed in hot water was recorded, and then the entire ear of the anesthetized mouse was dipped into 52° C. water for 24 seconds. Each mouse was returned to its cage after an injection of either the propylene glycol vehicle (control) or 100 mg of compound in propylene glycol. Ear swelling changes were monitored on individual mice at pre-burn, and at various times after thermal injury. Ear swelling changes were monitored on individual mice at pre-injury and at 1, 3, 6, 9,12, 18, 24 and 48 hours after thermal injury. Animals were treated with 100 mg of dehydroepiandrosterone (DHEA) dissolved in propylene glycol.

[2] = tested on: human T lymphocytes (PBMC); experiment: human mixed lymphocyte reaction (MLR); type: cell-based; conditions: 300 nM or 30 nM
Text: Human mixed lymphocyte reaction (MLR). The capacity of 3β,16α-dihydroxy-17-oxoandrostane, 3β,17β-dihydroxy-16-oxoandrostane, 17α-ethynylandrost-5-ene-3β,7β,17β-triol, and 17β-aminoandrost-5-ene-3β-ol to affect antigen specific stimulation in which human T lymphocytes respond to a specific foreign antigen (major histocompatibility complex).
Blood samples were obtained from 3 (2 males, […]) fasting, healthy human volunteers of 23-31 years old. […] The subjects were bled between 9 and 10 AM to limit possible fluctuations in the circulating levels of hormones or cytokines that could have influenced the in vitro responses of their lymphocytes. Peripheral blood mononuclear cells (PBMC) were isolated by centrifugation on Ficoll-Hypaque (density 1.077, Biochrom AG, Berlin, Germany) gradients and resuspended in culture medium (RPMI 1640 supplemented with 2 mM L-glutamine, penicillin (100 U/mL) and streptomycin ([…]) (Invitrogen s.rl., Milan, Italy). Autologous (responder) inactivated plasma was used at 10%. Five hundred thousand responder PBMC (PBMCr) and 500,000 allogeneic irradiated (30 Gy) stimulator PBMC (PBMCs) were mixed at a ratio of 1:1 in 200 μL medium and cultured for 6 days in flat bottom 96 well plates (Nunc, Roskilde, Denmark) at a concentration of 300 nM or 30 nM for each of the 4 compounds. The compounds were dissolved in ethanol and then diluted to the desired concentration with culture medium leading to a final solution containing 0.01% of ethanol. This vehicle was used as control. Controls also included PBMCr and PBMCs cultured separately. During the last 8 hours of the culture period the PBMC were pulsed with […] [^3H] thymidine (Amersham, Milan, Italy). The cells were then harvested and radioactivity incorporation measured with a beta cell counter. The mean cpm of quadruplicate wells was calculated. Proliferation of T cells was expressed as a stimulation index: SI=cpm (PMBCs xPBMCr)/cpm (PBMCr)+cpm (PBMCs). Statistical analysis was performed using the Student's t test. The cpm obtained from quadruplicate of each test compound were compared to proliferative responses obtained in control PBMCr and PBMCs cultured in the presence of the vehicle. Differences were considered significant at p<0.05.

[3] = tested on: EAE; experiment: experimental allergic encephalomyelitis (EAE), PLP 139-151; type: in vivo, female SJL/J mice; conditions: 5 mg/kg daily oral gavage; through day 26
Text: Treatment of autoimmune neurodegeneration. Three compounds, 17β-aminoandrost-5-ene-3β-ol, 17β-dimethylaminoandrost-5-ene-3β-ol and 17β-methylaminoandrost-5-ene-3β-ol were characterized for their capacity to ameliorate experimental allergic encephalomyelitis (EAE) in mice. This demyelinating condition is extensively used as a model for multiple sclerosis in humans and for testing of new therapies for treating multiple sclerosis, e.g., B. F. Bebo Jr. et al., J. Neurosci. Res. 52:420-426 1998; R. R. Voskuhl et al., Neuroscientist, 7:258-270 2001; H. Offner et al., J. Neuroimmunol., 130:128-139 2002.
In this protocol, the compounds were administered to female SJL/J mice by oral gavage at the onset of disease symptoms. An antigen was used to initiate the EAE condition in the mice. […] Immunization with this peptide antigen initiates an autoimmune Thl mediated demyelinating disease of the central nervous system. The antigen was prepared by solid phase synthesis and purified by high-performance liquid chromatography. […] The immunization protocol was subcutaneous injection over four sites on the hind flank on day 0. After immunization. the mice were assessed daily for clinical signs of EAE using the following scale: 0=no clinical signs or symptoms; 1=limp tail; 2=mild hind limb weakness and limp tail; 3=moderate hind limb weakness and limp tail or mild ataxia; 4=severe hind limb weakness and mild forearm weakness with moderate ataxia; 5=paraplegia with no more than moderate forelimb weakness; 6=paraplegia with severe forelimb weakness or severe ataxia or moribund condition.
Mice in the vehicle control group began to show observable symptoms of EAE at about 10-11 days after immunization with the PLP antigen, which is typical for the EAE disease model. The animals were dosed daily with 17β-aminoandrost-5-ene-3β-ol, 17β-dimethylaminoandrost-5-ene-3β-ol or 17β-methylaminoandrost-5-ene-3β-ol by oral gavage beginning at day 1, which was 1 day after immunization.

[4] = tested on: NF-κB; experiment: inhibition of NF-κB activation in NF-κB-bla THP-1 cells after LPS stimulation; type: cell-based, human; conditions: Homo sapiens, THP-1
Text: Inhibition of NF-κB in vitro. […] Activation of NF-κB increases expression of a number of genes that mediate inflammation. This protocol used human THP-1 cells, which are human mononuclear blood cells with a monocyte phenotype. The cell line, referred to as NF-κB-bla THP-1, contained a β-lactamase reporter gene under the control of the NF-kB response element (Invitrogen, CellSensor™, product No. K1176). In this cell line, the β-lactamase reporter gene is stably integrated in the THP-1 cells. This cell line was used to detect agonists or antagonists of the NF-κB signaling pathway. These NF-κB-bla THP-1 cells respond to the presence of tumor necrosis factor alpha (TNFα) or bacterial lipopolysaccharide (LPS) by increased expression of the β-lactamase reporter gene. The level of β-lactamase enzyme activity was measured by fluorescence resonance energy transfer ratiometric detection. TNFα and LPS are both potent inflammation-inducing agents that activate NF-κB in THP1 cells. In this assay, compounds that decrease NF-κB activity, and thus β-lactamase, in the presence of TNFα or LPS are exerting an anti-inflammation activity.
The NF-κB-bla THP-1 cells were maintained by passaging or feeding as needed. […] The cells were plated at 20,000 cells/well in a 384-well Black-wall, clear bottom assay plates (Costar#3712-TC low fluorescence background plates) approximately 24 hours before adding either TNFα at 10 ng/mL or LPS at 0.2 ng/mL to activate NF-κB.
The assays were usually conducted 2-4 times for each compound and the values shown below are averages for each compound.

[5] = tested on: ionizing radiation exposure; experiment: survival after lethal total body irradiation (10 Gy); type: in vivo, female B6D2F1 mice
Procedure: Treatment of ionizing radiation exposure. The effect of selected F1Cs on survival of lethally-irradiated female B6D2F1 mice were compared to control animals treated with vehicle alone. […] For Group 4, test article was administered as a 50 μL volume, by intramuscular injection for three consecutive days. The formulation was a a suspension containing 0.1% w/v carboxymethyl-cellulose, 0.9% w/v sodium chloride and 0.05% v/v phenol. The formulations were agitated to uniformly resuspend the Fl C before syringing, and injected into animals within a few minutes of drawing into the syringe to prevent settling in the syringe.
The groups of animals were treated as follows. […] The number of surviving animals is shown for day 6, 7, 12 and 21.

[6] = tested on: insulin sensitivity in db/db diabetic mice; experiment: hyperinsulinemic-euglycemic clamp; type: in vivo; conditions: ^14C-2-deoxyglucose; p<0.05
Procedure: Glucose lowering in 8 week old db/db diabetic mice. The hyperinsulinemic-euglycemic clamp protocol was conducted to measure insulin sensitivity in vivo. In this procedure, insulin was administered to raise the insulin concentration while glucose was infused to maintain euglycemia or a fixed, normal blood glucose level (about 180 mg/dL). […] The objective of this protocol was to investigate characterize the capacity of 17α-ethynylandrost-5-ene-3β,7β,17β-triol and androst-5-ene-3β,7β,16α,17β-tetrol to ameliorate systemic insulin resistance and improve whole body glucose disposal in the hyperinsulinemic-euglycemic clamp model. The degree of skeletal muscle and hepatic insulin sensitivity and tissue specific glucose uptake were also assessed. The animals were dosed daily by oral gavage for 14 days. On Day 10 of treatment catheters were implanted in the carotid artery and jugular vein. On the day of the clamp (day 14) the compound was administered at 7:30 am.
Body weight and glucose concentration were assessed on day 0, 7 and day 14 of treatment. On day 14 a euglycemic hyperinsulinemic clamp was performed. Food was removed at 7:30 am at 10:30 a primed continuous infusion of [3-^3H]-glucose (0.05 μCi/min). A baseline blood sample was taken at 12:50 (−10 min) and at 1:00 (0 min) a euglycemic hyperinsulinemic clamp was initiated by administering 10 mU /kg/min of insulin. Glucose was infused at a variable rate to clamp the glucose concentration at ˜180 mg/dl. A bolus of [^14C]-2deoxyglucose was given at the end of the study to assess tissue specific glucose uptake. Plasma ^14C 2-deoxyglucose was assessed at 122, 125, 130, 135, 145 min. […]
Analysis was conducted as follows. Plasma samples were deproteinized with Ba(OH)2 (0.3 N) and ZnSO4 (0.3 N), dried and radioactivity was assessed on scintillation counter (Packard TRICARB 2900 TR, Meriden, Conn.). […] One supernatant was directly counted to determine radioactivity from both [14C] […] A second aliquot was treated with Ba(OH)2 and ZnSO4 to remove ^14C DGP and any tracer incorporated into glycogen and then counted to determine radioactivity from free [^14C]DG(2). [^14C]DGP was calculated as the difference between the two aliquots. […] Rg, an index of tissue specific glucose uptake was calculated as previously described (E.W. Kraegen et al., Am. J. Physiol., 248:E353-E362, 1985). Whole body glucose turnover was calculated as the ratio of the ^3H glucose infusion rate (dpm/kg/min) and arterial plasma glucose specific activity (dpm/mg). Endogenous glucose production was calculated as the difference between the whole body glucose turnover and the exogenous glucose infusion rate (R. N. Bergman et al., Endocr. Rev., 6:45-86, 1985).

## C[C@]12CC[C@H](O)CC1=CC[C@@H]1[C@@H]2CC[C@]2(C)C(=O)[C@H](Br)C[C@@H]12 [16α-bromodehydroepiandrosterone]
[1]
  protection against progressive ischemia after thermal injury to the ear: protected treated animals against much of the ischemic consequences

## C[C@]12CC[C@H]3[C@@H](CCC4C[C@@H](O)CC[C@@]43C)[C@@H]1CC(=O)[C@@H]2O (stereo partly drawn) [3β,17β-dihydroxy-16-oxoandrostane]
[2]
  immune suppression (inhibition of the MLR): not appreciably immune suppressive

## CN[C@H]1CC[C@H]2[C@@H]3CC=C4C[C@@H](O)CC[C@]4(C)[C@H]3CC[C@]12C [17β-methylaminoandrost-5-ene-3β-ol]
[3]
  clinical severity of EAE symptoms: reduced the clinical severity

## C[C@]12CC[C@H](O)CC1=CC[C@@H]1[C@@H]2CC[C@]2(C)C(=O)[C@H](O)C[C@@H]12 [16α-hydroxydehydroepiandrosterone]
[1]
  protection against progressive ischemia after thermal injury to the ear: less protective

## C[C@]12CC[C@H]3[C@@H](CC=C4C[C@@H](O)CC[C@@]43C)[C@@H]1CC[C@@H]2O [androst-5-ene-3β,17β-diol]
[4]
  IC50: 0.014 nM
[5]; 0.6 mg i.m. daily for 3 days, day 6
  number of surviving animals (groups of 12): 12
[5]; 0.6 mg i.m. daily for 3 days, day 7
  number of surviving animals (groups of 12): 12
[5]; 0.6 mg i.m. daily for 3 days, day 12
  number of surviving animals (groups of 12): 11
[5]; 0.6 mg i.m. daily for 3 days, day 21
  number of surviving animals (groups of 12): 9
[5]; 0.6 mg s.c. daily for 3 days, day 6
  number of surviving animals (groups of 12): 12
[5]; 0.6 mg s.c. daily for 3 days, day 7
  number of surviving animals (groups of 12): 11
[5]; 0.6 mg s.c. daily for 3 days, day 12
  number of surviving animals (groups of 12): 10
[5]; 0.6 mg s.c. daily for 3 days, day 21
  number of surviving animals (groups of 12): 7
[5]; 3.0 mg s.c. daily for 3 days, day 6
  number of surviving animals (groups of 12): 12
[5]; 3.0 mg s.c. daily for 3 days, day 7
  number of surviving animals (groups of 12): 12
[5]; 3.0 mg s.c. daily for 3 days, day 12
  number of surviving animals (groups of 12): 9
[5]; 3.0 mg s.c. daily for 3 days, day 21
  number of surviving animals (groups of 12): 7
[1]
  protection against progressive ischemia after thermal injury to the ear: protected treated animals against much of the ischemic consequences

## CN(C)[C@H]1CC[C@H]2[C@@H]3CC=C4C[C@@H](O)CC[C@]4(C)[C@H]3CC[C@]12C [17β-dimethylaminoandrost-5-ene-3β-ol]
[3]
  clinical severity of EAE symptoms: reduced the clinical severity

## CN(CCOc1ccc(CC2SC(=O)NC2=O)cc1)c1ccccn1.O=C(O)/C=C\C(=O)O (stereo not drawn) [rosiglitazone, rosiglitazone maleate, reference compound]
[6]
  glucose uptake in the gastrocnemius muscle: more effective

## C[C@]12CC[C@H](O)CC1=CC[C@@H]1[C@@H]2CC[C@]2(C)C(=O)[C@H](Cl)C[C@@H]12 [16α-chlorodehydroepiandrosterone]
[1]
  protection against progressive ischemia after thermal injury to the ear: only slightly protective
